Assay results published in US10618937B2, “Method of treating Alzheimer's disease” (INDUSTRY-ACADEMIC COOPERATION FOUNDATION GYEONGSANG …, priority 2016, dated 2020).

Assays:
APP/PS1 model mice [1] = assay: Western blot analysis of cortex and hippocampus of APP/PS1 model mice; type: in vivo
Method: Male C57BL/6J wild type mice and double transgenic B6.Cg-Tg (APPswe, PSENdE9) 85Dbo Mmjax (APP/PS1) AD-model mice were obtained from Jackson Laboratories (Bar Harbor, Me., USA). The brains of the double transfected mice express Swedish mutation-containing chimeric mouse-human amyloid precursor protein (Mo/HuAPP695swe) and mutant human presenilin 1 protein (PS1-dE9). The mice were fed with an unlimited supply of food and water at an animal breeding ground of a university at a temperature of 23° C., at the relative humidity of 60±10% and in the black and light cycle of 12 h/12 h. […] The maintenance and treatment for mice were performed according to the guidelines of the Animal Ethics Committee (IACUC) issued by Department of Biology, Division of Applied Life Science of Gyeongsang National University in Korea. Experiments according to the present disclosure were conducted according to the guidelines approved by the guidelines of the Animal Ethics Committee (IACUC) issued by Department of Biology, Division of Applied Life Science of Gyeongsang National University in Korea (approval ID: 125).
The novel peptide according to the present disclosure was dissolved in bi-deionized distilled water, and administered while being finally included in physiological saline. The novel peptide according to the present disclosure was intraperitoneal injection (IP) administered to APP/PS1 and wild-type (WT) mice in a dose of 5 mg/kg/day at an interval of 2.5 days for 30 days to 45 days. Wild-type mice and APP/PS1 transfected mice were treated with the same volume of physiological saline, and after behavioral analysis, the animal models were sacrificed for further biochemical and immunohistochemical analysis.
(§1) Protein concentrations were measured by using a BIORAD protein assay kit (BIORAD LABORATORIES, CA, USA). Equal amounts of protein (15 to 25 μg) were electrophoresed under the same experimental conditions using 4 to 12% BLOT™ minigel and MES SDS electrophoresis buffer (running buffer) 1×(NOVEX, LIFE TECHNOLOGIES, Kiryat Shmona, Israel), and a broad range prestained protein marker (GANGNAM STAIN™, Intron Biotechnology) was used as the control for the molecular size. To reduce nonspecific binding, the membranes used were blocked with 5% (w/v) skim milk and reacted with a primary antibody (a 1:1000 dilution) overnight at 4° C. After an appropriate reaction with a horseradish peroxidase (HRP)-binding secondary antibody, proteins were detected by using an ECL detection reagent (AMERSHAM PHARMECIA BIOTECH, Uppsala, Sweden) according to the manufacturer's instructions. The X-ray film was scanned and the optical density of the band was analyzed using a densitometry using a computer-based Sigma Gel program, version 1.0 (SPSS, Chicago, Ill., USA).
(§2) For use as the primary antibody, anti-amyloid β (Aβ), anti-APP, anti-AdipoR1 (Adiponectin receptor 1), anti-phospho-AMPK, anti-SNAP-25 (Synaptosomal-Associated Protein 25), anti-SAP-102, anti-Syanpatophysin, phospho-Tau (Ser 413), anti-p-mTOR, anti-p-ULK1, and anti-β-actin were used.

APP/PS1 model mice [2] = assay: Morris water maze test in APP/PS1 model mice; type: in vivo; conditions: APP/PS1 model mice treated, compared to APP/PS1 model mice
Method: Male C57BL/6J wild type mice and double transgenic B6.Cg-Tg (APPswe, PSENdE9) 85Dbo Mmjax (APP/PS1) AD-model mice were obtained from Jackson Laboratories (Bar Harbor, Me., USA). The brains of the double transfected mice express Swedish mutation-containing chimeric mouse-human amyloid precursor protein (Mo/HuAPP695swe) and mutant human presenilin 1 protein (PS1-dE9). The mice were fed with an unlimited supply of food and water at an animal breeding ground of a university at a temperature of 23° C., at the relative humidity of 60±10% and in the black and light cycle of 12 h/12 h. […]
The Morris Underwater Maze Test System was constructed as a circular water tank with a diameter of 100 cm and a height of 40 cm containing 15.5 cm depth of water (temperature of 23±1° C.) which was opaque with white ink added. […] The delay time for escaping from the water maze (the time to find the hidden escape platform) was calculated for each trial. […] For the probe experiment, the platform was removed, each mouse was allowed to freely swim for 60 seconds, the amount of time the mouse spent in the target quadrant was measured, and the number of platform positions the mouse passed by (where the platform was located during the hidden platform training). […] All data were recorded by using video-tracking software (SMART, Panlab Harward Apparatus, Bioscience Company, Holliston, Mass., USA).

[3] = tested on: APP-transfected HT-22 cells; assay: Western blot analysis of proteins isolated from APP-transfected HT-22 cells; type: cell-based; conditions: 1, 5, 10 or 20 μM
Method: SH-SY5Y cells and HT-22 cells were inoculated into a culture flask containing the medium, and cultured until reaching the confluency of 70% to 75%. The pCAX vector with the APPswe/ind gene was transfected for 48 hours by using Lipofectamine 3000 (Life technologies) according to the manufacturers instructions.
as §1, §2

[4] = hippocampus of APP/PS1 mice, 9 months and 12 months
[5] = hippocampus, 9 months and 12 months
[6] = hippocampus, 9 months and 12 months after treatment

Substance: RGPCG (adiponectin receptor-activating peptide) [5AA1]
- expression of p-ULK1 protein (APP/PS1 model mice [1]; APP/PS1 mice): suppression of the expression
- expression of p-mTOR protein (APP/PS1 model mice [1]; APP/PS1 mice): suppression of the expression
- APP in the cortex (APP/PS1 model mice [1]; cortex of APP/PS1 mice): statistically significantly reduced
- amyloid-β oligomer (Aβ oligomer) in the cortex (APP/PS1 model mice [1]; cortex of APP/PS1 mice): statistically significantly reduced
- expression level of p-Tau (Ser404) (APP/PS1 model mice [1]; hippocampus of APP/PS1 mice): remarkably decreased levels
- expression level of p-Tau (Ser413) (APP/PS1 model mice [1]; hippocampus of APP/PS1 mice): remarkably decreased levels
- expression level of AdipoR1 (APP/PS1 model mice [1]; [4]): remarkably increased levels
- expression level of SIRT-1 (APP/PS1 model mice [1]; [4]): remarkably increased levels
- expression level of pAMPK (APP/PS1 model mice [1]; [4]): remarkably increased levels
- expression level of AAP in the hippocampus (APP/PS1 model mice [1]; [5]): decreased
- expression level of Aβ in the hippocampus (APP/PS1 model mice [1]; [5]): decreased
- expression level of SAP-102 (APP/PS1 model mice [1]; [6]): remarkably increased levels
- expression level of SNAP-25 (APP/PS1 model mice [1]; [6]): remarkably increased levels
- expression level of Synaptophysin (APP/PS1 model mice [1]; [6]): remarkably increased levels
- time for staying where the platform was located (probe test) (APP/PS1 model mice [2]): increased
- expression of AdipoR1 protein [3]: expressed more
- expression of p-AMPK protein [3]: expressed more
- expression level of amyloid β (Aβ) ([3]; normalized with β-actin): significantly reduced
- expression level of β-amyloid precursor protein (APP) ([3]; normalized with β-actin): significantly reduced
